Reference: patent US8518924B2, “Agent for inhibiting visceral fat accumulation” (Morinaga Milk Industry Co., Ltd., priority 2005, dated 2013)

System: ZDF (Zucker Diabetic Fatty) rats
Test: Inhibitory effect on visceral fat accumulation (mesenteric fat weight) in high-fat-diet-fed ZDF rats
Format: in vivo, rat
Settings: for Effect of inhibiting visceral fat accumulation (in words): Tukey-Kramer's test vs negative sample; for Mesenteric fat weight as percentage of that of the group administered with the negative sample: oral once a day for 44 days, 45th day; for Mesenteric fat weight: male ZDF rats on high fat diet, oral 1 ml per 400 g body weight once a day for 44 days, measured at 45th day
Experimental: In Example 1, an inhibitory effect of a compound having a lophenol skeleton on visceral fat accumulation was investigated by using ZDF (Zucker Diabetic Fatty) rats that are model animals for obese diabetes.
Compound 3 (4-methylcholest-7-en-3-ol), Compound 4 (4-methylergost-7-en-3-ol), and Compound 5 (4-methylstigmast-7-en-3-ol) which were produced in Preparation Example 1 were used as Test Samples 1, 2, and 3, respectively. Each of the test samples was dissolved in DMSO, and a concentration of each of the compounds in each of the test samples was adjusted with distilled water to be 10 μg/ml, thereby preparing Test Samples 1-1, 2-1, and 3-1. Test Samples 1-2, 2-2, and 3-2 each having the concentration of a compound of 1 μg/ml were prepared.
At 45th day from initiation of the administration, mesenteric fat weights were measured as the visceral fat.

| SMILES | Effect of inhibiting visceral fat accumulation (in words) (1 μg/ml) | Mesenteric fat weight as percentage of that of the group administered with the negative sample (10 μg/ml solution) [%] | Effect of inhibiting visceral fat accumulation (in words) (10 μg/ml) | Mesenteric fat weight (1 μg/ml solution) [g] | Mesenteric fat weight (10 μg/ml solution, listed as Test Sample 3-1) [g] | Mesenteric fat weight (10 μg/ml solution, listed as Test Sample 2-1) [g] | Mesenteric fat weight (10 μg/ml solution, listed as Test Sample 1-1) [g] |
| --- | --- | --- | --- | --- | --- | --- | --- |
| CCC(CCC(C)C1CCC2C3=CCC4C(C)C(O)CCC4(C)C3CCC21C)C(C)C (stereo not drawn) [Compound 5, 4-methylstigmast-7-en-3-ol] | tendency to reduce the visceral fat, but no significant effect was observed | 48.7 | significant effects of inhibiting visceral fat accumulation | 6.10 ± 1.67 | 3.36 ± 1.67 |  |  |
| CC(C)C(C)CCC(C)C1CCC2C3=CCC4C(C)C(O)CCC4(C)C3CCC21C (stereo not drawn) [Compound 4, 4-methylergost-7-en-3-ol] | tendency to reduce the visceral fat, but no significant effect was observed | 54.9 | significant effects of inhibiting visceral fat accumulation | 5.74 ± 1.57 |  | 3.78 ± 0.26 |  |
| CC(C)CCCC(C)C1CCC2C3=CCC4C(C)C(O)CCC4(C)C3CCC21C (stereo not drawn) [Compound 3, 4-methylcholest-7-en-3-ol] | tendency to reduce the visceral fat, but no significant effect was observed | 65.0 | significant effects of inhibiting visceral fat accumulation | 5.63 ± 1.25 |  |  | 4.48 ± 1.34 |
